Data as given in patent US8143276B2, “4-thio substituted quinoline and naphthyridine compounds” (XTL Biopharmaceuticals Ltd., priority 2007, dated 2012).

How the values were obtained:
HCV RNA = assay: HCV Replicon RNA Assay (Taqman); type: cell-based, Hepatitis C virus; settings: Huh-Luc-Neo cells, compound re-added at 24 h, HCV RNA by quantitative PCR; read-out: Replicon Inhibition*, Taqman
Method: (§1) Expression of HCV IRES driven luciferase reporter activity and HCV RNA is measured to obtain indirect and direct measures of replication of HCV RNA respectively. Inhibitors of HCV replication and/or proliferation are determined by initially identifying molecules that inhibit expression of the HCV IRES driven luciferase reporter in this HCV Replicon Luciferase Assay. Cell viability assays and control cell based luciferase assays are then run on hits identified in the HCV Replicon Luciferase Assay to eliminate cytoxic compounds and non-specific compounds which act by inhibiting the luciferase enzyme.
(§2) Day 0, Cell Seeding and Compound Treatment: Huh-Luc-Neo Cells are seeded at 25,000/well in an opaque-walled 96 plate with Growth Medium (DMEM phenol red free+PS+2 mM glutamine; 100 μl/well). The compounds to be tested are added to the experimental wells (10 μl/well at 10× assay concentration) and the cells are then incubated (5% CO2, 37° C.).
Day 1, Media Change and Compound Treatment: 24 hours after the initial compound treatment the cell culture media is aspirated from the wells and fresh Growth Medium is added (DMEM phenol red free+PS+2 mM glutamine; 100 μl/well). The compounds to be tested are then added to the appropriate experimental wells (10 μl/well at 10× assay concentration) and the cells are then incubated (5% CO2, 37° C.) for an additional 24 hrs.
Day 2, RNA Isolation and cDNA Synthesis: The cells are washed with 1× Phosphate Buffered Saline (PBS) once.
Day 3, Quantitative PCR Based Measurement of HCV RNA (Taqman Assay): Quantitative PCR analysis to measure HCV RNA expression from cDNA synthesized on Day 2 is performed using the ABI 9700 HT Sequence Detection System (Applied Biosystems) as previously described (Lohman et al, Science 285, 110-113, 1999). The data is analyzed and IC50s are determined using GraphPad Prism 4 software. Hits validated in the Replicon RNA Assay have IC50s<8.0 μM and show <30% inhibition of Cell Viability at a compound concentration of 50 μM (Cell Titer Glow Assay, cell viability assay conditions identical to HCV Replicon RNA Assay conditions).

Huh-Luc-Neo Cells = assay: CellTiter-Glo Cell Viability Assay; type: cell-based, human; settings: 48 h, read-out: Cytotoxicity*
Method: as §2, with “ul/well).” for “μl/well).”, “tested for inhibition of cell viability” for “tested”, “C.) for 48 h.” for “C.).”
Day 2, Reagent Preparation and Assay: The CellTiter-Glo Buffer is thawed and equilibrated to room temperature prior to use. The lyophilized CellTiter-Glo Substrate is equilibrated to room temperature prior to use. 10 ml of CellTiter-Glo Buffer is transferred to 1 vial of CellTiter-Glo Substrate and mixed by gently with a Vortex. 100 μl of CellTiter-Glo Assay reagent (CellTiter-Glo Buffer+CellTiter-Glo Substrate Mixture) is added to each well. The well contents are mixed for 5 min. on an orbital shaker at room temperature to induce cell lysis and the luminescence is then measured using a luminometer.

HCV Replicon = HCV Replicon Luciferase Assay; type: cell-based, Hepatitis C virus; settings: Huh-Luc-Neo cells, 48 h incubation, luciferase reporter; read-out: Replicon Inhibition*, Luciferase
Method: The identification of inhibitors of HCV replication and/or proliferation has been facilitated by the development of a cell-based system to study HCV replication. Inhibition of HCV replication may be performed using the HCV Replicon Assay developed in the laboratories of Bartenschlager (Lohman et al, Science 285, 110-113, 1999) and Rice (Blight et al, Science 290, 1972-1974, 2000). The assay is performed using the Huh-Luc-Neo cell line (Lohman et al, Science 285, 110-113, 1999). Huh-Luc-Neo cells are a human hepatoma cell line (Huh-7) stably expressing a bi-cistronic subgenomic replicon containing the HCV IRES in which the structural proteins of HCV have been deleted and replaced by a construct containing sequences coding for the firefly luciferase reporter gene, the neomycin selectable marker and the EMCV IRES to direct expression of a truncated HCV genome expressing the […] NS3, NS4A, NS4B, NS5A, and NS5B. HCV targets through which inhibitors could act to inhibit replication include the NS3 protease, the helicase/ATPase, NS5A, the NS5B-RNA dependent RNA polymerase, and the HCV IRES.
as §1
as §2, with “C.) for 48 h.” for “C.).”
Day 2, Reagent Preparation and Luciferase Assay: The Bright-Glo Luciferase Assay Buffer (Promega) is thawed and equilibrated to room temperature prior to use. The lyophilized Bright-Glo Luciferase Assay Substrate is equilibrated to room temperature prior to use. 10 ml of Bright-Glo Luciferase Assay Buffer is transferred to 1 vial of Bright-Glo Luciferase Assay Substrate bottle and mixed by gently with a Vortex. 100 μl of Bright-Glo Luciferase Assay reagent (Bright-Glo Luciferase Assay Buffer+Bright-Glo Luciferase Assay Substrate Mixture) is added to each well. The well contents are mixed for 5 min. on an orbital shaker at room temperature to induce cell lysis and the luminescence is then measured using a luminometer. The data is analyzed and IC50s are determined using GraphPad Prism 4 software. Hits validated in the Replicon Luciferase assay have IC50s<8.0 μM and show <30% inhibition of Cell Viability at a compound concentration of 100 μM (Cell Titer Glow Assay, cell viability assay conditions identical to HCV Replicon Luciferase Assay conditions).

Cn1c(=O)cc(Sc2ccccc2F)c2ccccc21 [compound 008]
IC50 (HCV RNA): 1 to 10 µM | IC50 (Huh-Luc-Neo Cells): > 100 µM | IC50 (HCV Replicon): 1 to 10 µM
